From patent US20050042244A1, “Method of controlling acarian and device for use in the same” (KURARAY CO LTD, priority 2002, published 2005)

Key:
[1] = test system: Dermatophagoides pteronyssinus; experiment: Repellence test method (invasion preventive method); type: in vivo; settings: 1.0 g/m^2; for number of Acarina, 1 day later: untreated control 65; for number of Acarina, 2 days later: untreated control 132; for number of Acarina, 3 days later: untreated control 140
Description: The repellence rates of the isomer of farnesylacetone and phytone under 1.0 g/m^2 conditions for a kind of Dermatophagoides pteronyssinus were determined by the repellence test method (invasion preventive method: “Processing Technique” vol. 33, No. 2, pp. 153-155 (1998) “titled: Acarina repellent-processed product repellence test basic manual” (Apareru Seihin-tou Hinshitsu Seinou Taisaku Kyougikai). The results are shown in Table 1 below. […]

[2] = test system: Dermatophagoides pteronyssinus; experiment: Acarina repellence test by improved glass tube method; type: in vivo; settings: filter paper that absorbed farnesylacetone (0.1 g); 37±1° C., 75±5% Rh, 48 hr; gas concentration 5 μg/L
Excerpt: The “glass tube method” known as one of the repellence tests for Acarina repellent-processed fibers was modified and used for a repellence test.
In the L-shaped glass tube in the test section was fixed filter paper with a two-sided tape inside the glass tube at part D, a test sample (filter paper that absorbed farnesylacetone (0.1 g)) was placed, and the glass tube opening on the D side was sealed with an airtight PARAFILM. Then, a medium containing 10,000 live Acarina (Dermatophagoides pteronyssinus) were placed in part A of the L-shaped glass Lube, and the glass end on the A side was sealed with a high density fabric capable of preventing passage of Acarina while maintaining air permeability. This test apparatus was stood still in a container maintained at 37±1° C., 75±5% Rh for 48 hr. […] The farnesylacetone concentration of the gas in part D was measured by gas chromatography. […]
Subsequently, the feed for attraction in part C was taken out, and the number of Acarina that invaded into the feed for attraction was counted by the following method. […] The number of Acarina floating in the upper layer was counted. […] The repellence rate of the test sample was determined by the following formula and found to be 98%. […]

Dermatophagoides farinae = experiment: Acarina repellence test by improved invasion prevention method (coated lid, vapor); type: in vivo; settings: 25° C., 1 day
Description: The invasion prevention method was modified and a repellence test was performed.
As a lid to cover this box (4, 4′), two glass plates (length 5.5 cm, width 6 cm, thickness 1.3 mm) were prepared.
An ethanol solution of farnesylacetone (1%, 100 mg) was coated on the surface of one (test section side) of the two lids to cover the test box, and ethanol was air dried for 10 min. Then, a sample for Acarina attraction (50 mg) each was placed on both ends of the test box in the longitudinal direction, and the above-mentioned farnesylacetone-coated lid (4′) alone was placed, such that the surface coated with farnesylacetone faced the inside of the box. The box was placed in an incubator at 37° C. for 60 min until the farnesylacetone vapor filled the test section side of the test box. […] Thereafter, the test container was taken out, the number of Acarina that invaded into the feeds in the test section side and the control section side (50 and 1100, respectively, the rest of the Acarina fled) was counted. The repellence rate was determined by the following formula and found to be 95%. The concentration of farnesylacetone filled in the air at 37° C. was measured in the same manner as in Reference Example 1 and assumed to be 5 μg/L. Repellence rate (%)=(1− number of Acarina that invaded the test section/number of Acarina that invaded the control section)×100 […]

Acarina = experiment: Repellence test with supplied gas containing 0.001 μg/L farnesylacetone in modified glass plate test apparatus; type: in vivo; settings: gas containing 0.001 μg/L farnesylacetone at 1 mL/min; 37±1° C., 75±5% Rh; 4 hr
Description: A 2L flask containing the gas containing 0.001 μg/L farnesylacetone prepared in the same manner as in Reference Example 1 was equipped with a Teflon® tube (inner diameter 2 mm) for discharging the gas containing farnesylacetone and a Teflon® tube for charging water into the container using a metering pump, whereby an apparatus to send out (supply) the gas containing farnesylacetone at 1 mL/min by introducing water into the flask at 1 mL/min was manufactured. […]
Then the test apparatus was placed in a room with constant temperature and humidity at 37±1° C., 75±5% Rh, and the apparatus was operated for 3 hr for filling the test section with the above-mentioned concentration of farnesylacetone, after which an Acarina medium containing 10000 live Acarina were inserted from the gap of the lid and left standing for 4 hr. Then, the number of Acarina that invaded into the feed for attraction in each part C of the test section side and the control section side was counted. […] The number of Acarina floating in the upper layer was counted. The repellence rate was determined by the following formula and found to be 80%. […]

[3] = Measurement of farnesylacetone concentration in the air (gas chromatography, FID, absolute calibration); type: physicochemical; settings: for farnesylacetone concentration in gas of sample bottle: 1 hr
Description: measurement of farnesylacetone concentration in the air
Farnesylacetone (1 mL) was placed in a 50 mL sample bottle, and a large magnetic stirring bar capable of rotating the air as well was placed therein. The bottle was placed neck-deep in an oil bath at 130° C. with rotation, and heated for 1 hr to saturate the inside of the sample bottle with farnesylacetone vapor. Thereafter, the gas in the sample bottle was taken by 5 mL with a gas tight syringe, and using gas chromatography with an FID detector, the concentration of farnesylacetone was measured by the absolute calibration method.
Farnesylacetone (1 mL) was placed in a 50 mL sample bottle, and a large magnetic stirring bar capable of rotating the air as well was placed therein. The bottle was placed neck-deep in a water bath at 60° C. with rotation, and heated for 1 hr to fill the inside of the sample bottle with farnesylacetone vapor. Thereafter, the gas in the sample bottle was taken by 5 mL with a gas tight syringe, and using gas chromatography with an FID detector, the concentration of farnesylacetone was measured by an absolute calibration method. […] Almost simultaneously, the gas (5 mL) in the sample bottle was taken again, a propeller was set in a 10 L beaker, the gas was added into the sealed beaker, the air in the beaker was stirred with the propeller for 10 min to dilute the gas 2,000-fold, whereby gas containing 0.01 μg/L farnesylacetone was obtained. The diluted gas (200 mL) was sampled with a syringe, a propeller was set in a 2 L flask, the gas was added into the sealed flask, the air in the beaker was stirred with the propeller for 10 min to further dilute the gas 10-fold, whereby gas containing 0.001 μg/L farnesylacetone was obtained.

human = experiment: Odor and effect on human of sampled gas containing farnesylacetone; settings: gas containing 20,000 μg/L farnesylacetone
Description: Farnesylacetone (1 mL) was placed in a 50 mL sample bottle, and a large magnetic stirring bar capable of rotating the air as well was placed therein. The bottle was placed neck-deep in a water bath at 60° C. with rotation, and heated for 1 hr to fill the inside of the sample bottle with farnesylacetone vapor. Thereafter, the gas in the sample bottle was taken by 5 mL with a gas tight syringe, and using gas chromatography with an FID detector, the concentration of farnesylacetone was measured by an absolute calibration method. […] Almost simultaneously, the gas (5 mL) in the sample bottle was taken again, a propeller was set in a 10 L beaker, the gas was added into the sealed beaker, the air in the beaker was stirred with the propeller for 10 min to dilute the gas 2,000-fold, whereby gas containing 0.01 μg/L farnesylacetone was obtained. […]

SMILES	repellence rate, 1 day later [1] [%]	repellence rate, 2 days later [1] [%]	repellence rate, 3 days later [1] [%]	number of Acarina, 1 day later [1] [Acarina]	number of Acarina, 2 days later [1] [Acarina]	number of Acarina, 3 days later [1] [Acarina]	Repellence rate [2] [%]	number of Acarina that invaded into the feed in the test section side (Dermatophagoides farinae; 50,000 released, control section side 1100)	Repellence rate (Dermatophagoides farinae; lid coated with 1% ethanol solution (100 mg), vapor only, 5 μg/L) [%]	Repellence rate (Acarina) [%]	farnesylacetone concentration in gas of sample bottle ([3]; 60° C. water bath) [µg/L]	farnesylacetone concentration in gas of sample bottle ([3]; 130° C. oil bath, saturated vapor)	farnesylacetone concentration of the gas in part D ([3]; L-shaped glass tube of Example 1, after 48 hr at 37±1° C.) [µg/L]	concentration of farnesylacetone filled in the air ([3]; at 37° C., test box of Example 2) [ng/mL]	odor and effect of sampled gas on human (human)
CC(=O)CCC=C(C)CCC=C(C)CCC=C(C)C [cis-cis rich farnesylacetone, farnesylacetone]	92.3	88.6	79.3	5	15	29	–	–	–	–	–	–	–	–	–
CC(=O)CCCC(C)CCCC(C)CCCC(C)C (stereo not drawn) [phytone]	89.2	90.9	83.6	7	12	23	–	–	–	–	–	–	–	–	–
CC(=O)CCC=C(C)CCC=C(C)CCC=C(C)C [trans-trans farnesylacetone, farnesylacetone]	87.7	90.2	82.9	8	13	24	–	–	–	–	–	–	–	–	–
CC(=O)CC/C=C(\C)CC/C=C(\C)CCC=C(C)C [farnesylacetone]	–	–	–	–	–	–	98	50	95	80	20	20,000 μg/L	~5	~5	had a strong odor, caused cough when inhaled in a large amount, and provoked uncomfortable feeling in human
